Laboratory results published in US4727074A, “2-(phenylmethylene)-1-(diaminoalkoxy) cycloalkanes and their pharmaceutical uses” (priority 1983, dated 1988).

Legend:
writhing reactions = test: Analgesic effect on mice (acetic acid writhing); format: in vivo; conditions: for ED50: Mus musculus, po, 1 h, read-out: ED50 (analgesic effect); for Therapeutical index (analgesic): Table II, LD50/ED50, mice; for ED50 (analgesic effect) / ED50 (analgesic effect), inactive: mice, oral; for ED50 (analgesic effect): one hour prior to 0.5% acetic acid
Procedure: (3) Analgesic effect on mice
To mice 0.4 ml of 0.5% acetic acid is […] administered. After 5 minutes the characteristic writhing reactions are counted for a period of 5 minutes. The test compound is administered orally one hour prior to the administration of acetic acid. The activity is expressed in the percentage of the data obtained for the control group.

[1] = tested on: Hexobarbital sleeping time; test: animal or person; format: in vivo; conditions: for ED50: Mus musculus, iv, read-out: ED50 (narcosis potentiating effect); for Therapeutical index (narcosis potentiating): Table I, LD50/ED50, mice; for ED50 (narcosis potentiating effect): mice, Hexobarbital i.v., effect = sleeping time 2.5 times longer than control
Procedure: (2) Narcosis potentiating effect
To mice having a body weight of 20-24 g Hexobarbital is administered intravenously in a dose of […]. The sleeping time of the treated and control animals is measured.

[2] = Acute toxicity on mice (oral); format: in vivo; conditions: mouse, in vivo, 4 days observation
Procedure: (§1) (1) Acute toxicity on mice
(§2) The acute toxicity is determined on male and female white mice of the CFLP strain. The body weight of the animals amounts to 18-24 g. The test compound is administered orally in a dose of 20 ml/kg. After treatment the animals are placed in a mouse box and kept on scrapings litter at room temperature. The animals receive mouse fodder and tap water ad libitum.

[3] = tested on: white mice of the CFLP strain; test: Acute toxicity on mice (oral); format: in vivo; conditions: 4 days observation
Procedure: as §1, §2

aconitine = test: animal or person; format: in vivo, rats; conditions: for ED50: Rattus norvegicus, iv, read-out: Percental aconitine inhibition ED50; for Therapeutical index (antiarrhythmial): Table IV, LD50 i.v./ED50; for Percental inhibition of aconitine: rats, 2 minutes before aconitine
Procedure: (4) Antiarrhythmial effect on rats
The antiarrhythmial effect is determined on rats (both male and female; body weight 160-200 g) according to the modified test of Marmo et al. [Marmo et al.: Arzneimittelforschung 20, 12 (1970)]. Aconitine is intravenously administered in the form of a bolus injection. The ECG deviations are followed for 5 minutes by a standard II method. The test compound is administered intravenously 2 minutes before the addition of aconitine.
In Table IV the antiarrhythmial effect of a representative compound of the present invention is compared to that of a very active compound specifically disclosed in Hungarian Pat. No. 169,298. The test is carried out as disclosed in connection with Table III.

[4] = Acute toxicity i.v. (LD50 of Table IV); conditions: rat, in vivo

In the case of `C(=C1/CCCC/C1=N\OCCCN1CCN(c2ccccc2)CC1)/c1ccccc1` [Example 1, 2-[(E)-phenylmethylene]-1-[(E)-(4'-phenyl-piperazinyl-propoxyimino)]-cyclohexane], the ED50 (writhing reactions) is reported as 200 mg/kg, the “Therapeutical index (analgesic)” value (writhing reactions) is reported as > 10.0 and the ED50 [1] is reported as 200 mg/kg. The “Therapeutical index (narcosis potentiating)” value [1] was 10.0, the LD50 at 96 h ([2]; po, Table I) was 2000 mg/kg and the LD50 at 96 h ([2]; po, Table II) was > 2000 mg/kg.
With `Clc1cccc(/C=C2\CCCCC\C2=N/OCCCN2CCN(Cc3ccccc3)CC2)c1` [Example 2, 2-[(E)-(m-chloro-phenylmethylene)]-1-[(E)-(4'-benzylpiperazinyl-propoxyimino)]-cycloheptane] the “Therapeutical index (analgesic)” value (writhing reactions) was 17.2, the “ED50 (analgesic effect)” value (writhing reactions) was 43 mg/kg and the LD50 ([3]; Table II) was 740 mg/kg.
In the case of `CC(C)N(CCCO/N=C1\CCCC\C1=C/c1ccc(Cl)cc1)C(C)C` [Example 3, 2-[(E)-(p-chloro-phenylmethylene)]-1-[(E)-(3'-diisopropylamino-propoxyimino)]-cyclohexane], the ED50 (writhing reactions) is reported as 45 mg/kg, the “Therapeutical index (analgesic)” value (writhing reactions) is reported as 24.2 and the LD50 at 96 h ([2]; po, Table II) is reported as 1100 mg/kg.
In the case of `CC(C)N(CCCO/N=C1\CCCC\C1=C/c1ccccc1)C(C)C` [Example 4, 2-[(E)-phenylmethylene]-1-[(E)-(3'-diisopropylamino-propoxyimino)]-cyclohexane], the ED50 (aconitine) is reported as 0.54 mg/kg, the “Therapeutical index (antiarrhythmial)” value (aconitine) is reported as 23.14 and the “Percental inhibition of aconitine” value (aconitine; dose 1 mg/kg i.v.) is reported as 86.2 Percental. For the same compound, the LD50 [4] was 12.5 mg/kg.
In the case of `CC(C)N(CCO/N=C1\CCCCC\C1=C\c1ccccc1)C(C)C` [Example 5, 2-[(Z)-phenylmethylene]-1-[(E)-(2'-diisopropylamino-ethoxyimino)]-cycloheptane], the ED50 [1] is reported as 40 mg/kg, the “Therapeutical index (narcosis potentiating)” value [1] is reported as 20.0 and the LD50 at 96 h ([2]; po, Table I) is reported as 800 mg/kg. The “Percental inhibition of aconitine” value (aconitine; dose 4 mg/kg i.v.) was 34.7 Percental.
For `CC(CO/N=C1\CCCCC\C1=C/c1ccccc1)N(C)C` (stereo not drawn) [Example 8, 2-[(E)-phenylmethylene]-1-[(E)-(2'-dimethylamino-2'-methyl-1-ethoxyimino)]-cycloheptane], the ED50 [1] was 22 mg/kg, the “Therapeutical index (narcosis potentiating)” value [1] was 36.4 and the LD50 at 96 h ([2]; po, Table I) was 800 mg/kg.
In the case of `CC(CO/N=C1\CCCC\C1=C/c1ccccc1)N(C)C` (stereo not drawn) [Example 9, 2-[(E)-phenylmethylene]-1-[(E)-(2'-dimethylamino-2'-methyl-1-ethoxyimino)]-cyclohexane], the ED50 [1] is reported as 23 mg/kg, the “Therapeutical index (narcosis potentiating)” value [1] is reported as 26.0 and the LD50 at 96 h ([2]; po, Table I) is reported as 600 mg/kg.
With `CC(C)N(CCO/N=C1\CCCCCC\C1=C/c1ccccc1)C(C)C` [Example 10, 2-[(E)-phenylmethylene]-1-[(E)-(2'-diisopropylamino-ethoxyimino)]-cyclooctane] the ED50 (writhing reactions) was 58 mg/kg, the “Therapeutical index (analgesic)” value (writhing reactions) was 6.9 and the LD50 at 96 h ([2]; po, Table II) was 400 mg/kg. The “Percental inhibition of aconitine” value (aconitine; dose 4 mg/kg i.v.) was 57.6 Percental.
In the case of `CN(C)CCCO/N=C1\CCCCCC\C1=C/c1ccccc1` [Example 11], the “Therapeutical index (analgesic)” value (writhing reactions) is reported as 6.7, the “ED50 (analgesic effect)” value (writhing reactions) is reported as 150 mg/kg and the “Therapeutical index (narcosis potentiating)” value [1] is reported as 500.0. For the same compound, the “ED50 (narcosis potentiating effect)” value [1] was 2 mg/kg, the LD50 ([3]; Table I) was 1000 mg/kg and the LD50 ([3]; Table II) was 1000 mg/kg.
In the case of `CC(C)N(CCO/N=C1\CCCC\C1=C/c1ccccc1)C(C)C` [Example 12], the “Percental inhibition of aconitine” value (aconitine; dose 2 mg/kg i.v.) is reported as 39.2 Percental.
In the case of `CN(C)CCO/N=C1\CCCC\C1=C/c1ccc(Cl)cc1` [Example 13], the ED50 [1] is reported as 10 mg/kg, the “Therapeutical index (narcosis potentiating)” value [1] is reported as 200.0 and the LD50 at 96 h ([2]; po, Table I) is reported as 2000 mg/kg. For the same compound, the “Percental inhibition of aconitine” value (aconitine; dose 2 mg/kg i.v.) was 35.3 Percental.
In the case of `CCN(CC)CC(=O)Nc1c(C)cccc1C` [Lidocaine, N,N-diethyl-2,6-dimethyl-acetanilide, reference compound], the “Percental inhibition of aconitine” value (aconitine; dose 4 mg/kg i.v.) is reported as 23.5 Percental.
For `CCCC(C)(COC(N)=O)COC(N)=O` [Meprobamate, 2-methyl-2-n-propyl-1,3-propanediol-dicarbamate, reference compound], the ED50 [1] was 260 mg/kg, the “Therapeutical index (narcosis potentiating)” value [1] was 4.2 and the LD50 at 96 h ([2]; Table I) was 1100 mg/kg.
Compound `CC(=O)Nc1ccc(O)cc1` [Paracetamol, 4-hydroxy-acetanilide, reference compound] has an ED50 (writhing reactions) of 180 mg/kg.
In the case of `CN(C)CCCON=C1CCCCC1Cc1ccccc1` (stereo not drawn) [Reference compound A, 2-benzyl-1-(3'-dimethylamino-propoxy-imino)-cyclohexane, reference compound], the “ED50 (narcosis potentiating effect)” value [1] is reported as “inactive in a dose of 50 mg/kg” and the LD50 at 96 h ([2]; po, Table II) is reported as 250 mg/kg.
In the case of `COc1ccccc1C=C1CCCCC1=NOCC(C)CN(C)C` (stereo not drawn) [Reference compound C, 1-(2'-methyl-3'-dimethylaminopropoxyimino)-2-(o-methoxy-benzal)-cyclohexane, reference compound], the “ED50 (narcosis potentiating effect)” value [1] is reported as “inactive in a dose of 100 mg/kg”.
In the case of `CN(C)CCCON=C1CCCCC1Cc1ccc(Cl)cc1` (stereo not drawn) [Reference compound E, 1-(3'-dimethylamino-propoxyimino)-2-(p-chlorobenzyl)-cyclohexane, reference compound], the “ED50 (narcosis potentiating effect)” value [1] is reported as “inactive in a dose of 170 mg/kg”.
For `COc1ccc(C=C2CCCCC2=NOCCCN(C)C)cc1` [Reference compound F, 1-(3'-dimethylamino-propoxyimino)-2-(p-methoxybenzal)-cyclohexane, reference compound], the “ED50 (analgesic effect), inactive” value (writhing reactions; in a dose of 350 mg/kg) was “inactive” and the LD50 at 96 h ([2]; po, Table II) was 1750 mg/kg.
For `CC(C)N(CCON=C1CCCCCC1=Cc1ccccc1)C(C)C` [Reference compound G, 2-benzal-1-(2'-diisopropylamino-ethoxyimino)-cycloheptane, reference compound], the “ED50 (analgesic effect), inactive” value (writhing reactions; in a dose of 65 mg/kg) was “inactive”, the LD50 at 96 h ([2]; po, Table II) was 325 mg/kg and the ED50 (aconitine) was 2 mg/kg. For the same compound, the “Therapeutical index (antiarrhythmial)” value (aconitine) was 10.59 and the LD50 [4] was 21.2 mg/kg.
